“Also recorded” adds a separate entry of the source.
Columns and labels:
[1] = Bioreversion: plasma stability, porcine plasma; type: in vitro ADME
[2] = Thermal stability, 120° C. for 10 min; type: physicochemical; details: for CBN content of the sample after heating / Drug remaining / THC content of the sample after heating / Drug remaining (%): 120° C. for 10 min; for Drug remaining (%): % of initial; for CBN content of the sample, initial / Initial, μg (drug itself) / THC content of the sample, initial: before heating
Experimental: C. Thermal Stability—120° C. for 10 min.

[3] = Chemical stability pH dependent at 25° C.; type: physicochemical
Experimental: B. Chemical Stability pH Dependent at 25° C.

[4] = Aqueous solubility, pH dependent; type: physicochemical
[5] = Porcine buccal tissue homogenate stability; type: in vitro ADME; details: protein concentration 2 mg/ml
Experimental: (§1) b. Porcine Buccal Tissue Homogenate Stability
(§2) Protein Concentration 2 mg/ml

[6] = Control (IPBS) stability for the buccal homogenate study; type: physicochemical
Experimental: as §1, §2

[7] = In vivo ocular bioavailability of THC after topical formulations; details: for concentration at 1 h: male, New Zealand albino, rabbit, topical
[8] = system: intraocular pressure (IOP) induced model of glaucoma; experiment: Rabbit glaucoma model, IOP lowering after topical instillation; details: THC in Tocrisolve, 50 μL topical
[9] = Plasma THC from HME buccal patches in swine model; type: in vivo; details: swine
Experimental: THC was used as control formulation. Plasma was sampled from each animal at predetermined times and the amount of THC in the plasma was determined.
FIG. 20: Plasma THC concentrations as a function of time from THC-Val-HS loaded HME buccal patches. Data represents the mean value from 4 pigs. The animals were maintained under anesthesia for the first 4 hours and were then allowed to come out of anesthesia and given access to food and water.
A dose dependent plasma concentration time profile was then evaluated.
Plasma THC concentrations as a function of time and dose from THC-Val-HS loaded HME patches. Data represents the mean value. The animals for maintained under anesthesia for the first 4 hours and were then allowed to come out of anesthesia and given access to food and water.

[10] = Bioreversion: plasma stability, rabbit plasma; type: in vitro ADME

Q: For `CCCCCc1cc(OC(=O)[C@@H](N)Cc2ccc(O)cc2)c2c(c1)OC(C)(C)[C@@H]1CCC(C)=C[C@@H]21` [THC-Tyrosinate (11), Δ^9-THC-tyrosinate], which K [1] is on record?
A: 93.53 ± 8.79 ×10^−2 min^−1

Q: And the T1/2 [1]?
A: 0.74 ± 0.07 min

Q: And the “Drug loading (%)” value [2]?
A: 81.51 ± 4.28%

Q: And the “CBN content of the sample after heating” value [2]?
A: 24.42 ± 0.21 µg

Q: And the “Drug remaining” value [2]?
A: 1138.93 ± 60.67 µg

Q: What about the “THC content of the sample after heating” value [2] of the same compound?
A: 123.75 ± 2.69 µg

Q: What about the “Drug remaining (%)” value [2] of the same compound?
A: (93.15 ± 0.06) %

Q: And the “CBN content of the sample, initial” value [2]?
A: 35.68 ± 1.16 µg

Q: What about the “Initial, μg (drug itself)” value [2] of the same compound?
A: 1222.61 ± 64.25 µg

Q: And the “THC content of the sample, initial” value [2]?
A: 92.95 ± 3.08 µg

Q: What about the “First order rate constant” value ([3]; Buffer pH 5.0, 25° C.) of the same compound?
A: 6.32 ± 3.14 ×10^−3 h^−1

Q: What about the “First order rate constant” value ([3]; Buffer pH 7.0, 25° C.) of the same compound?
A: 25.02 ± 0.88 ×10^−3 h^−1

Q: And the “First order rate constant” value ([3]; Buffer pH 9.0, 25° C.)?
A: 53.88 ± 11.36 ×10^−3 h^−1

Q: What about the “First order rate constant” value ([3]; Water, 25° C.) of the same compound?
A: 9.40 ± 0.88 ×10^−3 h^−1

Q: What about the “Aqueous Solubility” value ([4]; pH 1.2) of the same compound?
A: 41.92 ± 2.14 µg/mL

Q: And the “Aqueous Solubility” value ([4]; pH 1.2, listed as THC-Tyrosine)?
A: 87.76 ± 4.48 µM

Q: And the “Aqueous Solubility” value ([4]; pH 2)?
A: 15.76 ± 0.66 µg/mL

Q: What about the “Aqueous Solubility” value ([4]; pH 2, listed as THC-Tyrosine) of the same compound?
A: 33.00 ± 1.38 µM

Q: And the “Aqueous Solubility” value ([4]; pH 3)?
A: 5.28 ± 1.78 µg/mL

Q: And the “Aqueous Solubility” value ([4]; pH 3, listed as THC-Tyrosine)?
A: 11.06 ± 3.73 µM

Q: What about the “Aqueous Solubility” value ([4]; pH 4) of the same compound?
A: 0.73 ± 0.03 µg/mL

Q: And the “Aqueous Solubility” value ([4]; pH 4, listed as THC-Tyrosine)?
A: 1.52 ± 0.06 µM

Q: What about the K [5] of the same compound?
A: 21.52 ± 0.55 ×10^−3 min^−1

Q: What about the T1/2 [5] of the same compound?
A: 32.21 ± 0.81 min

Q: What about the K [6] of the same compound?
A: 1.11 ± 0.04 ×10^−3 min^−1

Q: What does the source list for `CCCCCc1cc(OC(=O)CNC)c2c(c1)OC(C)(C)[C@@H]1CCC(C)=C[C@@H]21` [THC-Sarcosinate (7), Δ^9-THC-sarcosinate]?
A: K [1]: 63.16 ± 10.44 ×10^−2 min^−1; T1/2 [1]: 1.11 ± 0.18 min; Drug loading (%) [2]: 79.82 ± 0.85%; CBN content of the sample after heating [2]: 33.83 ± 0.97 µg; Drug remaining [2]: 841.38 ± 40.18 µg; THC content of the sample after heating [2]: 54.53 ± 3.35 µg; Drug remaining (%) [2]: (70.30 ± 4.10) %; CBN content of the sample, initial [2]: 40.05 ± 3.45 µg; Initial, μg (drug itself) [2]: 1197.24 ± 12.69 µg; THC content of the sample, initial [2]: 26.68 ± 3.80 µg; First order rate constant ([3]; Buffer pH 5.0, 25° C.): 38.35 ± 4.32 ×10^−3 h^−1; First order rate constant ([3]; Buffer pH 7.0, 25° C.): 605.61 ± 125.14 ×10^−3 h^−1; First order rate constant ([3]; Buffer pH 9.0, 25° C.): 1209.25 ± 203.05 ×10^−3 h^−1; First order rate constant ([3]; Water, 25° C.): 25.45 ± 21.99 ×10^−3 h^−1; Aqueous Solubility ([4]; pH 1.2): 101.38 ± 29.22 µg/mL; Aqueous Solubility ([4]; pH 1.2, listed as THC-Sarcosine): 263.16 ± 75.84 µM; Aqueous Solubility ([4]; pH 2): 151.75 ± 9.33 µg/mL; Aqueous Solubility ([4]; pH 2, listed as THC-Sarcosine): 393.89 ± 24.21 µM; Aqueous Solubility ([4]; pH 3): 96.52 ± 2.84 µg/mL; Aqueous Solubility ([4]; pH 3, listed as THC-Sarcosine): 250.54 ± 7.38 µM; Aqueous Solubility ([4]; pH 4): 50.74 ± 1.98 µg/mL; Aqueous Solubility ([4]; pH 4, listed as THC-Sarcosine): 131.70 ± 5.13 µM; Aqueous Solubility ([4]; pH 5): 7.14 ± 0.72 µg/mL; Aqueous Solubility ([4]; pH 5, listed as THC-Sarcosine): 18.54 ± 1.87 µM; Aqueous Solubility ([4]; pH 6): 0.53 ± 0.07 µg/mL; Aqueous Solubility ([4]; pH 6, listed as THC-Sarcosine): 1.38 ± 0.18 µM; K [5]: 37.36 ± 3.87 ×10^−3 min^−1; K [6]: 23.47 ± 1.60 ×10^−3 min^−1

Q: For `CCCCCc1cc(O)c2c(c1)OC(C)(C)C1CCC(C)=CC21` (stereo not shown) [THC, Δ^9-Tetrahydrocannabinol, reference compound], which “Drug loading (%)” value [2] is on record?
A: 85.38 ± 7.25%

Q: And the “CBN content of the sample after heating” value [2]?
A: 53.85 ± 1.60 µg

Q: And the “Drug remaining” value [2]?
A: 1214.10 ± 39.12 µg

Q: And the “Drug remaining (%)” value [2]?
A: (95.05 ± 5.05) %

Q: What about the “CBN content of the sample, initial” value [2] of the same compound?
A: 56.76 ± 4.86 µg

Q: What about the “Initial, μg (drug itself)” value [2] of the same compound?
A: 1280.70 ± 108.77 µg

Q: And the “First order rate constant” value ([3]; Buffer pH 5.0, 25° C.)?
A: 0.017 h⁻¹

Q: What about the “First order rate constant” value ([3]; Buffer pH 7.0, 25° C.) of the same compound?
A: 0.0098 h⁻¹

Q: What about the “THC concentrations in aqueous humor, iris-ciliary bodies / anterior segment ocular tissues” value ([7]; 1 hour post topical application) of the same compound?
A: not observed

Q: And the concentration at 1 h ([7]; cornea, 50 μL of 0.1% w/v THC)?
A: 1380 ng/g

Q: And the concentration at 1 h ([7]; cornea, 50 μL of 0.37% w/v THC)?
A: 6010 ng/g

Q: And the concentration at 1 h ([7]; sclera, 50 μL of 0.1% w/v THC)?
A: 416 ng/g

Q: What about the concentration at 1 h ([7]; sclera, 50 μL of 0.37% w/v THC) of the same compound?
A: 684 ng/g

Q: What about the solubility ([4]; aqueous medium at pH 2, pH 2, aqueous buffer) of the same compound?
A: 0.95 µg/mL

Q: And the solubility ([4]; aqueous medium at pH 3, pH 3, aqueous buffer)?
A: 2.23 µg/mL

Q: And the solubility ([4]; aqueous medium at pH 4, pH 4, aqueous buffer)?
A: 1.27 µg/mL

Q: And the solubility ([4]; aqueous medium at pH 5, pH 5, aqueous buffer)?
A: 2.23 µg/mL

Q: And the solubility ([4]; aqueous medium at pH 6, pH 6, aqueous buffer)?
A: 2.23 µg/mL

Q: What about the solubility ([4]; aqueous medium at pH 7, pH 7, aqueous buffer) of the same compound?
A: 2.23 µg/mL

Q: And the solubility ([4]; aqueous medium at pH 8, pH 8, aqueous buffer)?
A: 2.23 µg/mL

Q: What about the solubility ([4]; aqueous medium, pH 3, aqueous buffer) of the same compound?
A: 2.23 µM

Q: What about the solubility ([4]; aqueous medium, pH 4, aqueous buffer) of the same compound?
A: 1.27 µM

Q: What about the solubility ([4]; aqueous medium, pH 5, aqueous buffer) of the same compound?
A: 2.23 µM

Q: What about the solubility ([4]; aqueous medium, pH 6, aqueous buffer) of the same compound?
A: 2.23 µM

Q: And the solubility ([4]; aqueous medium, pH 7, aqueous buffer)?
A: 2.23 µM

Q: And the solubility ([4]; aqueous medium, pH 8, aqueous buffer)?
A: 2.23 µM

Q: And the solubility ([4]; pH 2, aqueous buffer)?
A: 0.95 µM

Q: What about the solubility ([4]; water) of the same compound?
A: 2.23 µM

Q: What about the solubility ([4]; water, H20) of the same compound?
A: 2.23 µg/mL

Q: What about the “maximum observed effect, drop in IOP from baseline” value [8] of the same compound?
A: 40%

Q: And the “time for IOP to return to 90% of baseline” value [8]?
A: ≤ 2 h

Q: And the “time to maximum effect post topical application” value [8]?
A: ≤ 30 min

Q: What about the “Transbuccal systemic bioavailability of THC” value ([9]; THC loaded HME patch) of the same compound?
A: no bioavailability; also recorded: extremely poor

Q: What about the “THC levels in plasma from transmucosal HME patches” value ([9]; buccal patch) of the same compound?
A: No THC levels were detected

Q: Which results are given for `CCCCCc1cc(OC(=O)C(N)CC(C)C)c2c(c1)OC(C)(C)C1CCC(C)=CC21` (stereo not shown) [THC-Leucinate (8), Δ^9-THC-leucinate]?
A: K [1]: 42.70 ± 3.58 ×10^−2 min^−1; T1/2 [1]: 1.629 ± 0.137 min; Drug loading (%) [2]: 103.65 ± 4.12%; CBN content of the sample after heating [2]: 20.27 ± 0.43 µg; Drug remaining [2]: 1383.29 ± 40.73 µg; THC content of the sample after heating [2]: 25.86 ± 0.83 µg; Drug remaining (%) [2]: (88.99 ± 0.92) %; CBN content of the sample, initial [2]: 16.34 ± 0.50 µg; Initial, μg (drug itself) [2]: 1554.80 ± 61.76 µg; THC content of the sample, initial [2]: -6.13 ± 0.84 µg; First order rate constant ([3]; Buffer pH 5.0, 25° C.): 15.94 ± 3.38 ×10^−3 h^−1; First order rate constant ([3]; Buffer pH 7.0, 25° C.): 85.91 ± 16.83 ×10^−3 h^−1; First order rate constant ([3]; Buffer pH 9.0, 25° C.): 119.98 ± 33.51 ×10^−3 h^−1; First order rate constant ([3]; Water, 25° C.): 8.51 ± 2.80 ×10^−3 h^−1; K [10]: 33.84 ± 10.92 ×10^−2 min^−1; T1/2 [10]: 2.160 ± 0.697 min; Aqueous Solubility ([4]; pH 1.2): 9.36 ± 0.11 µg/mL; Aqueous Solubility ([4]; pH 1.2, listed as THC-Leucine): 21.89 ± 0.26 µM; Aqueous Solubility ([4]; pH 2): 23.71 ± 0.40 µg/mL; Aqueous Solubility ([4]; pH 2, listed as THC-Leucine): 55.46 ± 0.93 µM; Aqueous Solubility ([4]; pH 3): 5.17 ± 0.60 µg/mL; Aqueous Solubility ([4]; pH 3, listed as THC-Leucine): 12.08 ± 1.40 µM; Aqueous Solubility ([4]; pH 4): 1.95 ± 0.09 µg/mL; Aqueous Solubility ([4]; pH 4, listed as THC-Leucine): 4.33 ± 0.20 µM; Aqueous Solubility ([4]; pH 5): 0.23 ± 0.03 µg/mL; Aqueous Solubility ([4]; pH 5, listed as THC-Leucine): 0.54 ± 0.06 µM; Aqueous Solubility ([4]; pH 6): 0.08 ± 0.01 µg/mL; Aqueous Solubility ([4]; pH 6, listed as THC-Leucine): 0.19 ± 0.02 µM; K [5]: 22.98 ± 1.49 ×10^−3 min^−1; T1/2 [5]: 30.21 ± 1.95 min; K [6]: 5.49 ± 0.46 ×10^−3 min^−1

— patent publication US9630941B2 (priority 2008, dated 2017)
